The target of one test is T1, FGFR3 (Homo sapiens, UniProt P22607).
T1 construct: RT112 (FGFR3 overexpression/FGFR3-TACC3 fusion); host or cells: RT112; the other entry of the earlier key: TACC3 (Q9Y6A5, Transforming acidic coiled-coil-containing protein 3)
Description: pERK potency assay (In Cell ELISA), RT112 cells. Type of test: cell-based. The note with it: RT112 (FGFR3 overexpression/FGFR3-TACC3 fusion) cells, 3 hours. In a few lines: (§1)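 IC50 values come from a 4-parameter sigmoidal fit of in-cell ELISA chemiluminescent pERK (Thr202/Tyr204) signal. Treatment lasted 3 h at 37 °C, final 0.000038 to 10 μM in 4-fold steps, using AN3CA (mutant FGFR2), DMS114 (amplified FGFR1) and RT112 (FGFR3 overexpression/fusion) cells.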

A further test deals with AN3CA. Description: 2D cell proliferation assay, AN3CA. Type of test: cell-based. The following applies: Homo sapiens, AN3-CA, 96 hours, CTG, read-out: Cell Line, IC50 AN3CA. In a few lines: (§2)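 Cells seeded at 3000–5000 cells/well in RPMI-1640 or DMEM with 10% FBS, treated next day with compounds at 0.000038–10 μM final (4-fold, 10 points) for 96 h at 37°C, 5% CO2. Viability by CellTiter-Glo luminescence; IC50 from sigmoidal variable-slope fit.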

Another test deals with T2, FGFR2 (Homo sapiens, UniProt P21802, K310R/N549K).
T2 construct: in FGFR aberrations of AN3CA (FGFR2/k310R, N549K); host or cells: AN3CA
T2 sequence (P21802 22-821 K310R/N549K): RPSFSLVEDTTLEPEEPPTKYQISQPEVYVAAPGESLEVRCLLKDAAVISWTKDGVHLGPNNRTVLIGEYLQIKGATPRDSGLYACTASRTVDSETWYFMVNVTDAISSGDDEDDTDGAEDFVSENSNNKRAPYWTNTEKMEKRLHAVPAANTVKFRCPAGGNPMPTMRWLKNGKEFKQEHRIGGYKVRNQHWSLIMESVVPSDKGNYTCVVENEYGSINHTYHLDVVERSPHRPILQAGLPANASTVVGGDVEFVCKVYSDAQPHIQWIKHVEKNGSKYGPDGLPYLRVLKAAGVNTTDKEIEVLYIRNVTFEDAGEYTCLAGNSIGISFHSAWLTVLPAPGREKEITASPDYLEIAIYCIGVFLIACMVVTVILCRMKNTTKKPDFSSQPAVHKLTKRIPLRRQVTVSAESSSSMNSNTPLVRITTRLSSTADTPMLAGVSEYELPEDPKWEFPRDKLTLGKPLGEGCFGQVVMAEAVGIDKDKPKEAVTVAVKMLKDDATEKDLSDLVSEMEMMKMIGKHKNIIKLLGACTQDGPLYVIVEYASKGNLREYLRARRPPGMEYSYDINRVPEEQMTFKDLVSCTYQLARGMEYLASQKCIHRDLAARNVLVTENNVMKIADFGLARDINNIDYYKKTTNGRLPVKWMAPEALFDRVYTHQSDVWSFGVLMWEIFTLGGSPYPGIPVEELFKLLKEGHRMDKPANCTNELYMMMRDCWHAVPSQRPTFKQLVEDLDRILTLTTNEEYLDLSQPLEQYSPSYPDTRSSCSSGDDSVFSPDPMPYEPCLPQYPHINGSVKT
Description: pERK potency assay (In Cell ELISA), AN3CA cells. In kind it is cell-based. Summed up: as §1
For orientation: ELISA stands for enzyme-linked immunosorbent assay.

For the next test, the target named is T3, Ba/F3 FGFR2-V564F (Homo sapiens, UniProt P21802, V564F, cells depend on it).
T3 construct: fused on or other part: Q9H694 (Protein bicaudal C homolog 1)
T3 sequence (P21802 whole entry V564F, the tested form may be a part): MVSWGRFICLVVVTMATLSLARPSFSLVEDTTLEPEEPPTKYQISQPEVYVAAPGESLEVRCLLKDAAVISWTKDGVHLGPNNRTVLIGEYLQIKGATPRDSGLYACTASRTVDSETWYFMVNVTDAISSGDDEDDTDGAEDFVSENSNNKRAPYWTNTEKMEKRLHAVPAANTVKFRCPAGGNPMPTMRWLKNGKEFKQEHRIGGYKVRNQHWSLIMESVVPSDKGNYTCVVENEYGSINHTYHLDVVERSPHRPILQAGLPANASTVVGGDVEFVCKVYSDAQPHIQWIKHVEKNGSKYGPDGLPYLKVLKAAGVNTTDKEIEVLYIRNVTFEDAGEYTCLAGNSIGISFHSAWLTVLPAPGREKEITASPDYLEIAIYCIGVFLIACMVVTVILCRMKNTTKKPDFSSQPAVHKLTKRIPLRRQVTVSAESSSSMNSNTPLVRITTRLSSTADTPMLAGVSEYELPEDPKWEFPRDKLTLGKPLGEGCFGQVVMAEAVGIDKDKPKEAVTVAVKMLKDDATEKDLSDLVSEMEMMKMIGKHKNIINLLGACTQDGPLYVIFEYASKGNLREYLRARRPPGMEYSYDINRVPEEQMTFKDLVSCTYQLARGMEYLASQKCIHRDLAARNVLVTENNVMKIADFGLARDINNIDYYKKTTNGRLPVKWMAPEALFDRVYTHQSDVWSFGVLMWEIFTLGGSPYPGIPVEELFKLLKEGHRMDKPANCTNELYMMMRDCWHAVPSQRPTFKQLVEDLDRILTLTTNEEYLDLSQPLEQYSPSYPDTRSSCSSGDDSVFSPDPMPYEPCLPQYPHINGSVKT
Description: 2D cell proliferation assay, Ba/F3 FGFR2-V564F. In kind it is cell-based, mouse. The following applies: 96 hours, CTG, read-out: Cell Line, IC50 Ba/F3 FGFR2-V564F. In a few lines:
as §2

The target of a further test is T4, FGFR1 (Homo sapiens, UniProt P11362).
T4 construct: DMS114 (FGFR1 amplification); host or cells: DMS114
T4 sequence (P11362 22-822): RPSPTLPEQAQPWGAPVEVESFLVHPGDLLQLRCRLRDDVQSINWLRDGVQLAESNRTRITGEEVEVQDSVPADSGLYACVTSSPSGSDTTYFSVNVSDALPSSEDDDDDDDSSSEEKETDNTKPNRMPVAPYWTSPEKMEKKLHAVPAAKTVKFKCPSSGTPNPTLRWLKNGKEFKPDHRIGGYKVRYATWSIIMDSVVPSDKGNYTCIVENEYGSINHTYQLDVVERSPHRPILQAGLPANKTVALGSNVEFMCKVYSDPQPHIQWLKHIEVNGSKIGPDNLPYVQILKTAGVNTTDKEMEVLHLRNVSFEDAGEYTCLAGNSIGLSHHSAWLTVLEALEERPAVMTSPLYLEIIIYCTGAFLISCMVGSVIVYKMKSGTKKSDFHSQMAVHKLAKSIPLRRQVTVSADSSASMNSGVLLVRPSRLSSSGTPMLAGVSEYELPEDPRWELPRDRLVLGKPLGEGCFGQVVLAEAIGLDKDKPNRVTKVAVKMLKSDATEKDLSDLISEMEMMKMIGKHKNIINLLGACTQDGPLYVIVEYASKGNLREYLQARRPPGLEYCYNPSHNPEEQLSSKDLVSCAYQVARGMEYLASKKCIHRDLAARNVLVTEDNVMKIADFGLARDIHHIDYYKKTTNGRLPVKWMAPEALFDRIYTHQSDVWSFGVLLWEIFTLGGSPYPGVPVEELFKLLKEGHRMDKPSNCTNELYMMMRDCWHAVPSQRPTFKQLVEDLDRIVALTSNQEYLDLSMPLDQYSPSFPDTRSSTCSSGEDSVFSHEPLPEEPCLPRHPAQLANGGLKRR
Description: pERK potency assay (In Cell ELISA), DMS114 cells. In kind it is cell-based. The note with it: DMS114 (FGFR1 amplification) cells, 3 hours. Summed up: as §1

In a further test the target is T5, Ba/F3 FGFR2-N549K (Homo sapiens, UniProt P21802, N549K, cells depend on it).
T5 construct: fused on or other part: Q9H694 (Protein bicaudal C homolog 1)
T5 sequence (P21802 whole entry N549K, the tested form may be a part): as the sequence (P21802 whole entry V564F, the tested form may be a part) above, with N549K, F564V counted along it
Description: 2D cell proliferation assay, Ba/F3 FGFR2-N549K. The note with it: 96 hours, CTG, read-out: Cell Line, IC50 Ba/F3 FGFR2-N549K. Type of test: cell-based, mouse. In a few lines: as §2

The next test has as its system SNU-16. Description: 2D cell proliferation assay, SNU-16. In kind it is cell-based. The following applies: Homo sapiens, 96 hours, CTG, read-out: Cell Line, IC50 SNU-16. In a few lines: as §2
The subject of the next test is KATO III. Description: 2D cell proliferation assay, KATO III. In kind it is cell-based. The note with it: Homo sapiens, 96 hours, CTG, read-out: Cell Line, IC50 KATO III. In a few lines:
as §2

Broadly, the IC50 is the concentration at which inhibition is half-maximal. For the compound `C=CC(=O)N1CCC2(CC=C(c3c(-c4ccc(Oc5nccc(C)n5)c(F)c4)c4c(N)ncnc4n3C)CC2)CC1` [Example 62, 1-(9-(4-amino-5-(3-fluoro-4-((4-methylpyrimidin-2-yl)oxy)phenyl)-7-methyl-7H-pyrrolo[2,3-d]pyrimidin-6-yl)-3-azaspiro[5.5]undec-8-en-3-yl)prop-2-en-1-one], the IC50 is > 100 nM at FGFR3; 30 to 100 nM in the test on AN3CA; 1 to 10 nM on FGFR2 (pERK, AN3CA (FGFR2/k310R, N549K) cells, 3 hours); > 100 nM at FGFR1; 10 to 30 nM in the test on SNU-16; 10 to 30 nM with KATO III. Besides, the “FGFR1 IC50/FGFR2 IC50” value on FGFR2 (selectivity ratio, pERK potency, FGFR2 relative to FGFR1) was “F (a selectivity ratio greater than 50 but less than or equal to 150)”. Besides, at FGFR2 (selectivity ratio, pERK potency, FGFR2 relative to FGFR3), the “FGFR3 IC50/FGFR2 IC50” value is recorded as “G (a selectivity ratio greater than 150 but less than or equal to 500)”. Moreover, the results for the GI50 at Ba/F3 FGFR2-V564F and on Ba/F3 FGFR2-N549K were ≤ 1 nM and 10 to 30 nM, respectively.

(Values after patent US20260152503A1, “SPIROBICYCLIC COMPOUNDS” (ACERAND THERAPEUTICS (HONG KONG) LIMITED, priority 2022, published 2026).)
